The source made the active and inactive calls. The calls are words filed in the database; no cut-off is given here.
How the values were obtained:
[1] = target: Histone acetyltransferase p300 (Homo sapiens, UniProt Q09472); experiment: Inhibition of p300 HAT (unknown origin) using 3H-acetyl-CoA as substrate assessed as H3 peptide acetylation preincubated with compound for 15 mins followed by substrate addition and measured after 30 mins by microbeta scintillation counter analysis
LNCaP = experiment: Antiproliferative activity against human LNCaP cells assessed as inhibition of cell growth incubated for 48 hrs by MTT assay; type: functional, cell-based
PANC-1 = experiment: Antiproliferative activity against human PANC-1 cells assessed as inhibition of cell growth incubated for 48 hrs by MTT assay; type: functional, cell-based; conditions: PANC-1, 48 h
MCF-10A = experiment: Antiproliferative activity against human MCF-10A cells assessed as inhibition of cell growth incubated for 48 hrs by MTT assay; type: functional, cell-based
MCF7 [2] = experiment: Antiproliferative activity against human MCF7 cells assessed as inhibition of cell growth incubated for 48 hrs by MTT assay; type: functional, cell-based; conditions: MCF7, 48 h
MCF7 [3] = experiment: Synergistic antiproliferative activity against human MCF7 cells assessed as combination index at 20 uM incubated for 48 hrs in presence of 1.5 microg/ml doxorubicin by Chou-Talalay method; type: functional
MCF7 [4] = experiment: Synergistic antiproliferative activity against human MCF7 cells assessed as combination index at 40 uM incubated for 48 hrs in presence of 2 microg/ml doxorubicin by Chou-Talalay method; type: functional
MCF7 [5] = experiment: Antitumor activity against human MCF7 cells xenografted in BALB/c nude mouse assessed as tumor growth inhibition at 50 mg/kg, ip measured upto 14 days in presence of doxorubicin; type: functional; conditions: MCF7, 336 h, time <= 14 day, read-out: TGI
MCF7 [6] = experiment: Synergistic antiproliferative activity against human MCF7 cells assessed as combination index at 5 uM incubated for 48 hrs in presence of 2 microg/ml doxorubicin by Chou-Talalay method; type: functional
MCF7 [7] = experiment: Synergistic antiproliferative activity against human MCF7 cells assessed as combination index at 20 uM incubated for 48 hrs in presence of 0.5 microg/ml doxorubicin by Chou-Talalay method; type: functional
MCF7 [8] = experiment: Synergistic antiproliferative activity against human MCF7 cells assessed as combination index at 40 uM incubated for 48 hrs in presence of 2.5 microg/ml doxorubicin by Chou-Talalay method; type: functional
MCF7 [9] = experiment: Synergistic antiproliferative activity against human MCF7 cells assessed as combination index at 5 uM incubated for 48 hrs in presence of 1 microg/ml doxorubicin by Chou-Talalay method; type: functional
MCF7 [10] = experiment: Synergistic antiproliferative activity against human MCF7 cells assessed as combination index at 5 uM incubated for 48 hrs in presence of 3 microg/ml doxorubicin by Chou-Talalay method; type: functional
MCF7 [11] = experiment: Antitumor activity against human MCF7 cells xenografted in BALB/c nude mouse assessed as tumor growth inhibition at 50 mg/kg, ip measured upto 14 days; type: functional; conditions: MCF7, 336 h, time <= 14 day, read-out: TGI
MCF7 [12] = experiment: Synergistic antiproliferative activity against human MCF7 cells assessed as combination index at 5 uM incubated for 48 hrs in presence of 1.5 microg/ml doxorubicin by Chou-Talalay method; type: functional
[13] = Toxicity in BALB/c nude mouse xenografted with human MCF7 cells assessed as loss of body weight at 50 mg/kg, ip measured upto 14 days; type: organism-based; conditions: in vivo, 336 h, time < 14 day
MCF7 [14] = experiment: Synergistic antiproliferative activity against human MCF7 cells assessed as combination index at 5 uM incubated for 48 hrs in presence of 0.5 microg/ml doxorubicin by Chou-Talalay method; type: functional
MCF7 [15] = experiment: Synergistic antiproliferative activity against human MCF7 cells assessed as combination index at 10 uM incubated for 48 hrs in presence of 2.5 microg/ml doxorubicin by Chou-Talalay method; type: functional
MCF7 [16] = experiment: Inhibition of cell invasion in human MCF7 cells measured after 24 hrs by crystal violet staining based microscopic analysis; type: functional
MCF7 [17] = experiment: Inhibition of cell migration in human MCF7 cells assessed as measured after 24 hrs in presence of doxorubicin by microscopic analysis; type: functional
MCF7 [18] = experiment: Synergistic antiproliferative activity against human MCF7 cells assessed as combination index at 40 uM incubated for 48 hrs in presence of 1.5 microg/ml doxorubicin by Chou-Talalay method; type: functional
MCF7 [19] = experiment: Synergistic antiproliferative activity against human MCF7 cells assessed as combination index at 10 uM incubated for 48 hrs in presence of 2 microg/ml doxorubicin by Chou-Talalay method; type: functional
MCF7 [20] = experiment: Synergistic antiproliferative activity against human MCF7 cells assessed as combination index at 40 uM incubated for 48 hrs in presence of 3 microg/ml doxorubicin by Chou-Talalay method; type: functional
MCF7 [21] = experiment: Inhibition of cell invasion in human MCF7 cells measured after 24 hrs in presence of doxorubicin by crystal violet staining based microscopic analysis; type: functional
MCF7 [22] = experiment: Synergistic antiproliferative activity against human MCF7 cells assessed as combination index at 20 uM incubated for 48 hrs in presence of 1 microg/ml doxorubicin by Chou-Talalay method; type: functional
MCF7 [23] = experiment: Synergistic antiproliferative activity against human MCF7 cells assessed as combination index at 10 uM incubated for 48 hrs in presence of 3 microg/ml doxorubicin by Chou-Talalay method; type: functional
MCF7 [24] = experiment: Downregulation of survivin level in human MCF7 cells at 40 uM incubated for 24 hrs in presence of doxorubicin by Western blot analysis; type: functional, cell-based
MCF7 [25] = experiment: Downregulation of H3K27 level in human MCF7 cells upto 160 uM incubated for 24 hrs in presence of doxorubicin by Western blot analysis; type: functional, cell-based
MCF7 [26] = experiment: Synergistic antiproliferative activity against human MCF7 cells assessed as reduction in cell viability at 5 to 20 uM incubated for 48 hrs in presence of 1 microg/ml doxorubicin by MTT assay; type: functional; conditions: dose 5-20 µM
MCF7 [27] = experiment: Synergistic antiproliferative activity against human MCF7 cells assessed as combination index at 40 uM incubated for 48 hrs in presence of 1 microg/ml doxorubicin by Chou-Talalay method; type: functional
MCF7 [28] = experiment: Synergistic antiproliferative activity against human MCF7 cells assessed as combination index at 10 uM incubated for 48 hrs in presence of 0.5 microg/ml doxorubicin by Chou-Talalay method; type: functional
MCF7 [29] = experiment: Synergistic antiproliferative activity against human MCF7 cells assessed as reduction in cell viability at 5 to 20 uM incubated for 48 hrs in presence of 40 microg/ml doxorubicin by MTT assay; type: functional; conditions: dose 5-20 µM
MCF7 [30] = experiment: Induction of apoptosis in human MCF7 cells assessed as upregulation of cleaved caspase 3 level at 40 uM incubated for 24 hrs in presence of doxorubicin by Western blot analysis; type: functional, cell-based
MCF7 [31] = experiment: Synergistic antiproliferative activity against human MCF7 cells assessed as combination index at 10 uM incubated for 48 hrs in presence of 1.5 microg/ml doxorubicin by Chou-Talalay method; type: functional
MCF7 [32] = experiment: Induction of apoptosis in human MCF7 cells assessed as upregulation of cleaved PARP level at 40 uM incubated for 24 hrs in presence of doxorubicin by Western blot analysis; type: functional, cell-based
MCF7 [33] = experiment: Synergistic antiproliferative activity against human MCF7 cells assessed as combination index at 20 uM incubated for 48 hrs in presence of 2.5 microg/ml doxorubicin by Chou-Talalay method; type: functional
MCF7 [34] = experiment: Downregulation of H3K27 level in human MCF7 cells incubated for 24 hrs by Western blot analysis; type: functional, cell-based; conditions: dose <= 160.0 µM
MCF7 [35] = experiment: Antiproliferative activity against human MCF7 cells assessed as inhibition of cell proliferation incubated for 48 hrs by MTT assay; type: functional, cell-based; conditions: MCF7, 48 h
MCF7 [36] = experiment: Downregulation of c-Myc level in human MCF7 cells at 40 uM incubated for 24 hrs in presence of doxorubicin by Western blot analysis; type: functional, cell-based
MCF7 [37] = experiment: Synergistic antiproliferative activity against human MCF7 cells assessed as combination index at 40 uM incubated for 48 hrs in presence of 0.5 microg/ml doxorubicin by Chou-Talalay method; type: functional
MCF7 [38] = experiment: Synergistic antiproliferative activity against human MCF7 cells assessed as reduction in cell viability at 5 to 20 uM incubated for 48 hrs in presence of 2.5 microg/ml doxorubicin by MTT assay; type: functional; conditions: dose 5-20 µM
MCF7 [39] = experiment: Synergistic antiproliferative activity against human MCF7 cells assessed as combination index at 20 uM incubated for 48 hrs in presence of 2 microg/ml doxorubicin by Chou-Talalay method; type: functional
MCF7 [40] = experiment: Synergistic antiproliferative activity against human MCF7 cells assessed as combination index at 5 uM incubated for 48 hrs in presence of 2.5 microg/ml doxorubicin by Chou-Talalay method; type: functional
MCF7 [41] = experiment: Inhibition of cell migration in human MCF7 cells assessed as reduction in scratch measured after 24 hrs by microscopic analysis; type: functional
MCF7 [42] = experiment: Synergistic antiproliferative activity against human MCF7 cells assessed as combination index at 20 uM incubated for 48 hrs in presence of 3 microg/ml doxorubicin by Chou-Talalay method; type: functional
MCF7 [43] = experiment: Synergistic antiproliferative activity against human MCF7 cells assessed as combination index at 10 uM incubated for 48 hrs in presence of 1 microg/ml doxorubicin by Chou-Talalay method; type: functional

Sequence of Histone acetyltransferase p300 (Q09472 whole entry): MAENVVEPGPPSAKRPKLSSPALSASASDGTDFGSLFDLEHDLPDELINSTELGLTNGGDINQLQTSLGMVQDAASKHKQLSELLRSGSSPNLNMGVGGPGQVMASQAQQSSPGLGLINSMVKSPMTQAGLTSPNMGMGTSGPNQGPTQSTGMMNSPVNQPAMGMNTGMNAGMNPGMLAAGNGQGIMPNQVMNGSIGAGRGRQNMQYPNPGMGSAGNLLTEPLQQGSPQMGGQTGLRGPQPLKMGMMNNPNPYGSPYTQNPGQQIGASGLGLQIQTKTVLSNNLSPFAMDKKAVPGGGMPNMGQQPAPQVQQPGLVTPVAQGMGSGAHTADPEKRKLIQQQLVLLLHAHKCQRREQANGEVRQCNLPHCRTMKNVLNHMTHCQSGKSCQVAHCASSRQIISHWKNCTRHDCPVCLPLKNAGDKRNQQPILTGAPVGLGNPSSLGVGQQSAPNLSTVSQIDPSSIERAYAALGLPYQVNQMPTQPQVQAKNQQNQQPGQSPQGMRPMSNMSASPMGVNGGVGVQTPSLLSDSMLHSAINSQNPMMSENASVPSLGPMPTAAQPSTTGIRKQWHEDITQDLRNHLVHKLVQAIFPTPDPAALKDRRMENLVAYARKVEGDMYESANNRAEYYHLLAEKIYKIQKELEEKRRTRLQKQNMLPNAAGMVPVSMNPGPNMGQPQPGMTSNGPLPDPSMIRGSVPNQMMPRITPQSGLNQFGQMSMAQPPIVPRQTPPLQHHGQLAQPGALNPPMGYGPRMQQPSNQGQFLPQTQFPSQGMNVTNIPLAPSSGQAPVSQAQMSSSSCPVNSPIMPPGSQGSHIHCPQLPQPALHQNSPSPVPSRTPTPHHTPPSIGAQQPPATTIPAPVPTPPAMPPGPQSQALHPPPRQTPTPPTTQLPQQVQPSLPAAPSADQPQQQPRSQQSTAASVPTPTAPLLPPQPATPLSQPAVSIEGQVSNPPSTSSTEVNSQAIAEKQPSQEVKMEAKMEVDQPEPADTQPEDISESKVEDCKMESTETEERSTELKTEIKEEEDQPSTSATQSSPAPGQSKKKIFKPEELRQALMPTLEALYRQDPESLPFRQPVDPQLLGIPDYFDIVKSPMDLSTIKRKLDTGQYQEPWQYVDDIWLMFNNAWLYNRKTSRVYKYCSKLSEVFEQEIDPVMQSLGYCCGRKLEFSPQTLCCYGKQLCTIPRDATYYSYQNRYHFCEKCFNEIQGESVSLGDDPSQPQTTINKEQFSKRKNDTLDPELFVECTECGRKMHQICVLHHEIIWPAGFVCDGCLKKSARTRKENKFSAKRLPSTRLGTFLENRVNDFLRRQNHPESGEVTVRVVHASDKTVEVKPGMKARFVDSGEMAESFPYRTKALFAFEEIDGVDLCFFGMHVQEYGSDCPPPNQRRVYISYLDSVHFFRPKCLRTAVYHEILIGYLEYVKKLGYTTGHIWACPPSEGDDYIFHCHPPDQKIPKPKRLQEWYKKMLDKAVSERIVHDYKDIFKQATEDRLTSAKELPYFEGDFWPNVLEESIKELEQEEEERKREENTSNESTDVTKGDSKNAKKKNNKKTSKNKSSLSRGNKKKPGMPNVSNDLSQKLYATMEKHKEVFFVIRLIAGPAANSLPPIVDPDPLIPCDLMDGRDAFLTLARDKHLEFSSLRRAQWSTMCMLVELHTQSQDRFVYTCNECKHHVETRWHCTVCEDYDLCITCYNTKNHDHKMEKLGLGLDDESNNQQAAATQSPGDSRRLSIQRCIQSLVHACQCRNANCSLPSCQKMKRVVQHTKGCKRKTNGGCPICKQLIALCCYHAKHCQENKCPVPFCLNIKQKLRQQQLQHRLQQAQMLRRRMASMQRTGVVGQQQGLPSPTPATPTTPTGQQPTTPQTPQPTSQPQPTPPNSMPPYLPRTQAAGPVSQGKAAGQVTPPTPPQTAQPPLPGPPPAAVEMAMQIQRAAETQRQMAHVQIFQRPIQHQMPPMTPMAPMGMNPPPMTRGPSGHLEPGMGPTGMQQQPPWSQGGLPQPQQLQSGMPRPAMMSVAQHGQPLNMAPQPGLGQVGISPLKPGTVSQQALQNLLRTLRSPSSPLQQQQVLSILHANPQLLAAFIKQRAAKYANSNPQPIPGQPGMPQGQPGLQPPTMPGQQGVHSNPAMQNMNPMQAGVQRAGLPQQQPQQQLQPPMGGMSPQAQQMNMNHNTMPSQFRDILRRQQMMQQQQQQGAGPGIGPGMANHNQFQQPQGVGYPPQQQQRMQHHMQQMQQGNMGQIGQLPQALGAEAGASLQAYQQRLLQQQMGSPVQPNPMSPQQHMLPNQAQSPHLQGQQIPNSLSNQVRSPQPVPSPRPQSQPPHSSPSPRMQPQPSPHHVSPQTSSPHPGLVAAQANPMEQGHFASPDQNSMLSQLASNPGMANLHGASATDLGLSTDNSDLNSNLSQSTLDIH

With COc1ccc2cc3[n+](cc2c1OC)CCCOc1cc2c(cc1-3)OCO2 the IC50 [1] was > 20 µM.
For C1=CC2C=C3c4cc5c(cc4OCC[N+]3=CC2S1)OCO5 (stereo unspecified), the IC50 [1] was 9.31 µM.
Work on COc1ccc2cc3[n+](cc2c1OC)CCNc1cc2c(cc1-3)OCO2 yielded an IC50 [1] of 6.78 µM.
In the case of COc1cc2cc3[n+](cc2cc1OC)CCCCOc1cc2c(cc1-3)OCO2, the IC50 [1] is reported as > 20 µM.
In the case of COc1cc2cc3[n+](cc2cc1OC)CCS(=O)(=O)c1cc2c(cc1-3)OCO2, the IC50 [1] is reported as 11.3 µM.
Compound COc1ccc2cc3[n+](cc2c1OC)CCOc1cc2c(cc1-3)OCO2 has an IC50 [1] of 8.01 µM.
For COc1cc2cc3[n+](cc2cc1OC)CCCOc1cc2c(cc1-3)OCO2, the IC50 (LNCaP) was 33.5 µM, the IC50 (PANC-1) was 38.6 µM and the IC50 (MCF-10A) was > 50 µM. For the same compound, the IC50 [1] was 3.69 µM and the IC50 (MCF7 [2]) was 37.8 µM.
In the case of COc1cc2cc3[n+](cc2cc1OC)CCCS(=O)(=O)c1cc2c(cc1-3)OCO2, the IC50 [1] is reported as > 20 µM.
Compound COc1cc2cc3[n+](cc2cc1OC)CCOc1cc2c(cc1-3)OCO2.[Cl-] has a CI (MCF7 [3]) of 3.59, a CI (MCF7 [4]) of 0.66 and an inhibition in vivo at 50 mg/kg (MCF7 [5]) of 83.9%. The CI (MCF7 [6]) was 113.55, the CI (MCF7 [7]) was 3.11 and the CI (MCF7 [8]) was 0.6. For the same compound, the IC50 (LNCaP) was 43.7 µM, the IC50 (PANC-1) was > 50 µM and the IC50 (MCF-10A) was > 50 µM. For the same compound, the CI (MCF7 [9]) was 165.98, the CI (MCF7 [10]) was 39.24 and the inhibition in vivo at 50 mg/kg (MCF7 [11]) was 59.9%. For the same compound, the CI (MCF7 [12]) was 94.38, the Activity [13] was “Non-Toxic” and the CI (MCF7 [14]) was 517.04. The CI (MCF7 [15]) was 12.07, the inhibition (MCF7 [16]) was “Active” and the “inhibition (INH)” value (MCF7 [17]) was 34.22%. For the same compound, the CI (MCF7 [18]) was 0.57, the CI (MCF7 [19]) was 80.19 and the CI (MCF7 [20]) was 0.55. The inhibition (MCF7 [21]) was “Active”, the IC50 [1] was 1.51 µM and the CI (MCF7 [22]) was 3.44. The CI (MCF7 [23]) was 13.65, the Activity (MCF7 [24]) was “Active” and the Activity (MCF7 [25]) was “Active”. For the same compound, the Activity (MCF7 [26]) was 36%, the CI (MCF7 [27]) was 0.59 and the CI (MCF7 [28]) was 88.25. The Activity (MCF7 [29]) was 36%, the Activity (MCF7 [30]) was “Active” and the IC50 (MCF7 [2]) was 17.3 µM. For the same compound, the CI (MCF7 [31]) was 38.44, the Activity (MCF7 [32]) was “Active” and the CI (MCF7 [33]) was 2.28. The Activity (MCF7 [34]) was “Dose-Dependent Effect”, the IC50 (MCF7 [35]) was 17.3 µM and the Activity (MCF7 [36]) was “Active”. It also gave a CI (MCF7 [37]) of 1.85, an Activity (MCF7 [38]) of 27% and a CI (MCF7 [39]) of 2.65. The CI (MCF7 [40]) was 57.34, the “inhibition (INH)” value (MCF7 [41]) was 52.05% and the CI (MCF7 [42]) was 1.86. It also gave a CI (MCF7 [43]) of 37.99.
With COc1cc2cc3[n+](cc2cc1OC)CCNc1cc2c(cc1-3)OCO2 the IC50 (LNCaP) was > 50 µM, the IC50 (PANC-1) was > 50 µM and the IC50 (MCF-10A) was > 50 µM. The IC50 [1] was 3.39 µM and the IC50 (MCF7 [2]) was 36.7 µM.
COc1cc2cc3[n+](cc2cc1OC)CCCSc1cc2c(cc1-3)OCO2 gave an IC50 [1] of 11.5 µM.
C1=CC2C=C3c4cc5c(cc4NCC[N+]3=CC2S1)OCO5 (stereo unspecified) showed an IC50 [1] of 7 µM.
In the case of COc1cc2cc3[n+](cc2cc1OC)CCN(C(C)=O)c1cc2c(cc1-3)OCO2, the IC50 [1] is reported as 17.5 µM.
